Organism: Rattus norvegicus
Assay: Open TG-GATES - Regimen: Single
Format: toxicity, organism-based, Sprague-Dawley
Set-up: regimen Single, gender Male, age 6 weeks
Conditions: in vivo, po, 1000 mg/kg, route gavage, dose level High; for APTT / Bas / Eos / Fbg / Hb / Ht / Lym / MCHC / MCV / Mono / Neu / PT / Plat / RBC / Ret / WBC: tissue Blood; for KIDNEY_L / KIDNEY_R / KIDNEY_TOTAL: tissue Kidney; for LIVER: tissue Liver

Compound: CN(C)C(=N)N=C(N)N [METFORMIN]
- APTT (3 h): 16.6 s
- Bas (3 h): 0.2%
- Eos (3 h): 1%
- Fbg (3 h): 250.4 mg/dL
- Hb (3 h): 13.4 g/dL
- Ht (3 h): 40.4%
- Lym (3 h): 78.6%
- MCHC (3 h): 33.1%
- MCV (3 h): 64 fL
- Mono (3 h): 4.2%
- Neu (3 h): 15.2%
- PT (3 h): 12.2 s
- Plat (3 h): 118.4 x10_4/uL
- RBC (3 h): 631.8 x10_4/ul
- Ret (3 h): 9.7%
- WBC (3 h): 85.9 x10_2/uL
- KIDNEY_L (3 h): 0.9 g
- KIDNEY_R (3 h): 0.9 g
- KIDNEY_TOTAL (3 h): 1.8 g
- LIVER (3 h): 8.2 g
- ALP (3 h, tissue Plasma): 1303.6 IU/L
- ALT (3 h, tissue Plasma): 60.8 IU/L
- AST (3 h, tissue Plasma): 79.2 IU/L
- BUN (3 h, tissue Plasma): 8.8 mg/dL
- CRE (3 h, tissue Plasma): 0.2 mg/dL
- Ca (3 h, tissue Plasma): 11.1 mg/dL
- Cl (3 h, tissue Plasma): 106.6 meq/L
- DBIL (3 h, tissue Plasma): 0.008 mg/dL
- GLC (3 h, tissue Plasma): 149 mg/dL
- IP (3 h, tissue Plasma): 9.3 mg/dL
- K (3 h, tissue Plasma): 3.8 meq/L
- LDH (3 h, tissue Plasma): 63 IU/L
- Na (3 h, tissue Plasma): 141.4 meq/L
- PL (3 h, tissue Plasma): 130.2 mg/dL
- RALB (3 h, tissue Plasma): 2.6 g/dL
- TBIL (3 h, tissue Plasma): 0.038 mg/dL
- TG (3 h, tissue Plasma): 47 mg/dL
- TP (3 h, tissue Plasma): 5.4 g/dL
- gamma-GTP (3 h, tissue Plasma): 1 IU/L
- TERMINAL_BW (6 h): 201.2 g
- APTT (6 h): 17.8 s
- Bas (6 h): 0%
- Eos (6 h): 1%
- Fbg (6 h): 259.6 mg/dL
- Hb (6 h): 13 g/dL
- Ht (6 h): 39%
- Lym (6 h): 72.4%
- MCHC (6 h): 33.2%
- MCV (6 h): 64.7 fL
- Mono (6 h): 3.4%
- Neu (6 h): 22.4%
- PT (6 h): 12.3 s
- Plat (6 h): 118.4 x10_4/uL
- RBC (6 h): 602.6 x10_4/ul
- Ret (6 h): 9.9%
- WBC (6 h): 87.3 x10_2/uL
- KIDNEY_L (6 h): 0.8 g
- KIDNEY_R (6 h): 0.8 g
- KIDNEY_TOTAL (6 h): 1.7 g
- LIVER (6 h): 7.3 g
- ALP (6 h, tissue Plasma): 996 IU/L
- ALT (6 h, tissue Plasma): 104.2 IU/L
- AST (6 h, tissue Plasma): 88.4 IU/L
- BUN (6 h, tissue Plasma): 9.2 mg/dL
- CRE (6 h, tissue Plasma): 0.1 mg/dL
- Ca (6 h, tissue Plasma): 11.1 mg/dL
- Cl (6 h, tissue Plasma): 106.2 meq/L
- DBIL (6 h, tissue Plasma): 0.004 mg/dL
- GLC (6 h, tissue Plasma): 137 mg/dL
- IP (6 h, tissue Plasma): 10 mg/dL
- K (6 h, tissue Plasma): 3.7 meq/L
- LDH (6 h, tissue Plasma): 52 IU/L
- Na (6 h, tissue Plasma): 140.8 meq/L
- PL (6 h, tissue Plasma): 143.4 mg/dL
- RALB (6 h, tissue Plasma): 2.5 g/dL
- TBIL (6 h, tissue Plasma): 0.05 mg/dL
- TC (6 h, tissue Plasma): 86.2 mg/dL
- TG (6 h, tissue Plasma): 20.6 mg/dL
- TP (6 h, tissue Plasma): 5.2 g/dL
- gamma-GTP (6 h, tissue Plasma): 1 IU/L
- TERMINAL_BW (9 h): 199.9 g
- APTT (9 h): 16.4 s
- Bas (9 h): 0.2%
- Eos (9 h): 1%
- Fbg (9 h): 251.6 mg/dL
- Hb (9 h): 13 g/dL
- Ht (9 h): 38.9%
- Lym (9 h): 77%
- MCHC (9 h): 33.2%
- MCV (9 h): 65.9 fL
- Mono (9 h): 3%
- Neu (9 h): 18.6%
- PT (9 h): 12.5 s
- Plat (9 h): 112.8 x10_4/uL
- RBC (9 h): 591.6 x10_4/ul
- Ret (9 h): 10.3%
- WBC (9 h): 89.9 x10_2/uL
- KIDNEY_L (9 h): 0.8 g
- KIDNEY_R (9 h): 0.8 g
- KIDNEY_TOTAL (9 h): 1.7 g
- LIVER (9 h): 6.8 g
- ALP (9 h, tissue Plasma): 1282.4 IU/L
- ALT (9 h, tissue Plasma): 84.4 IU/L
- AST (9 h, tissue Plasma): 83.2 IU/L
- BUN (9 h, tissue Plasma): 10 mg/dL
- CRE (9 h, tissue Plasma): 0.1 mg/dL
- Ca (9 h, tissue Plasma): 10.9 mg/dL
- Cl (9 h, tissue Plasma): 107.4 meq/L
- DBIL (9 h, tissue Plasma): 0.008 mg/dL
- GLC (9 h, tissue Plasma): 113.8 mg/dL
- IP (9 h, tissue Plasma): 10.6 mg/dL
- K (9 h, tissue Plasma): 3.7 meq/L
- LDH (9 h, tissue Plasma): 46 IU/L
- Na (9 h, tissue Plasma): 142.2 meq/L
- PL (9 h, tissue Plasma): 138.6 mg/dL
- RALB (9 h, tissue Plasma): 2.5 g/dL
- TBIL (9 h, tissue Plasma): 0.042 mg/dL
- TG (9 h, tissue Plasma): 20.6 mg/dL
- TP (9 h, tissue Plasma): 5.1 g/dL
- gamma-GTP (9 h, tissue Plasma): 1.2 IU/L
- TERMINAL_BW (24 h): 202.6 g
- APTT (24 h): 15.2 s
- Bas (24 h): 0%
- Eos (24 h): 1%
- Fbg (24 h): 244.6 mg/dL
- Hb (24 h): 12.8 g/dL
- Ht (24 h): 38.3%
- Lym (24 h): 76.2%
- MCHC (24 h): 33.5%
- MCV (24 h): 64.5 fL
- Mono (24 h): 3.6%
- Neu (24 h): 18.6%
- PT (24 h): 12.6 s
- Plat (24 h): 114.2 x10_4/uL
- RBC (24 h): 593.4 x10_4/ul
- Ret (24 h): 9.4%
- WBC (24 h): 98.2 x10_2/uL
- KIDNEY_L (24 h): 0.9 g
- KIDNEY_R (24 h): 0.9 g
- KIDNEY_TOTAL (24 h): 1.8 g
- LIVER (24 h): 8.8 g
- ALP (24 h, tissue Plasma): 1502.2 IU/L
- ALT (24 h, tissue Plasma): 42.6 IU/L
- AST (24 h, tissue Plasma): 74.6 IU/L
- BUN (24 h, tissue Plasma): 15.4 mg/dL
- CRE (24 h, tissue Plasma): 0.2 mg/dL
- Ca (24 h, tissue Plasma): 11.3 mg/dL
- Cl (24 h, tissue Plasma): 104.2 meq/L
- DBIL (24 h, tissue Plasma): 0.012 mg/dL
- GLC (24 h, tissue Plasma): 182.4 mg/dL
- IP (24 h, tissue Plasma): 8.8 mg/dL
- K (24 h, tissue Plasma): 4.3 meq/L
- LDH (24 h, tissue Plasma): 57 IU/L
- Na (24 h, tissue Plasma): 140.8 meq/L
- PL (24 h, tissue Plasma): 135.4 mg/dL
- RALB (24 h, tissue Plasma): 2.5 g/dL
- TBIL (24 h, tissue Plasma): 0.038 mg/dL
- TG (24 h, tissue Plasma): 53.2 mg/dL
- TP (24 h, tissue Plasma): 5.4 g/dL
- gamma-GTP (24 h, tissue Plasma): 1 IU/L

Reference: ChEMBL document CHEMBL3885861, “Open TG-GATES”
